# From patent US6838467B2, “Dosing regimen” (Janssen Pharmaceutica N. V., priority 2000, dated 2005)
# What was measured:
# Format in all cases: in vivo
# [1] = system: CAPAN-2 human pancreatic tumors; experiment: Tumor studies in nude mice: CAPAN-2 tumors, oral compound 1; details: for tumor growth, continuous schedule: continuous for 18 days, previous study
# Text: (§1) Cell Culture: CAPAN-2 human pancreatic carcinoma cells were purchased from the American Type Culture Collection (Rockville, Md.). Cells were maintained in McCoys 5A Medium supplemented with 10% fetal calf serum and penicillin-streptomycin. NIH 3T3 cells transfected with the activated T24 H-ras oncogene (T24 cells ) were obtained from, Janssen Research Foundation (For methods see Parada, L. F., Tabin, C. J., Shih, C., and Weinberg, R Human EJ bladder carcinoma oncogene is
# (§2) Animals: Female nu/nu immunodeficient nude mice (42 days old) were purchased from Charles River Laboratories (Wilmington, Mass.). Mice were housed five per cage in microisolator cages placed in laminar flow shelving to maintain sterility. All bedding, food, water and cages were autoclaved. Animals were handled within the sterile confines of a laminar flow cabinet. The mice were otherwise maintained under standard vivarium conditions. Tumor studies were conducted under a protocol approved by the Institutional Animal Care and Use Committee.
# (§3) Tumor Studies In Nude Mice: Cells growing as monolayers in T150 tissue culture flasks were detached by trypsinization with 10 ml of 0.05% trypsin plus 0.53 mM EDTA per flask. Tumor cell suspensions were pooled and trypsin was inactivated by the addition of serum containing medium (10 ml per 40 ml of trypsin cell suspension). Cells were collected by centrifugation and resuspended in Hank's Balanced Salt Solution (HBSS) warmed to 37° C. A 1.0 ml portion of cell suspension was added to 20 ml of diluent and counted on a Coulter particle counter. The cell suspensions were recentrifuged and resuspended at a concentration of 1×10^6 cell per 0.10 ml of HBSS. Mice were inoculated with a single subcutaneous injection of 0.10 ml of tumor cell suspension in the inguinal region. Mice were housed five per cage with 15 mice assigned to each treatment group. Body weight and tumor size as determined by caliper measurements were measured weekly. The caliper measurements of length and width were multiplied to obtain tumor areas. At the end of study, mice were sacrificed by CO2 asphyxiation.
# […] […] Control groups received the same dosage volume of the 20% beta-cyclodextrin vehicle.
# […] […] […] […] The final drug solutions were sterile filtered immediately and transferred to sterile tubes. Solutions were stored refrigerated and protected form light during the course of the study and sterility was maintained by opening solutions under sterile laminar flow conditions.
# [2] = system: T24 H-ras transformed NIH3T3 cell tumors; experiment: Tumor studies in nude mice: T24 H-ras tumors, oral compound 1
# Text: as §1
# homologue of Harvey sarcoma virus ras gene. Nature 297: 474-478, 1982.; Santos, E., Tronick, S. R., Aaronson, S. A., Pulciani, S., and Barbacid, M. T24 human bladder carcinoma oncogene is an activated form of the normal human homologue of BALB-and Harvey-MSV transforming genes. Nature 298: 343-347, 1982.) T24 cells were maintained as monolayer cultures in Dulbecco's Modified Eagle's Medium (DMEM) supplemented with 10% Nu-serum Type IV (Collaborative Biomedical Products, Bedford, Mass. and 40 μg/ml G418 (Geneticin®, GIBCO-BRL, Gaithersburg, Md.).
# as §2, §3
# Three days after tumor inoculation, the five day treatment with (R)-6-[amino(4-chlorophenyl)(1-methyl-1H-imidazol-5yl)methyl]-4-(3-chlorophenyl)-1-methyl-2(1H)-quinolinone (compound 1) was initiated. Compound 1 was administered once daily by oral gavage in a 20% beta-cyclodextrin vehicle as a volume of 0.10 ml of solution per 10 gm body weight. Control groups received the same dosage volume of the 20% beta-cyclodextrin vehicle.
# Compounds. Compound 1 was prepared for oral administration by dissolving the compound first as a 2× concentrated stock in 40% hydroxypropyl beta cyclodextrin (lot no. 051-071/1) in 0.1 N HCI. Compound 1 was dissolved by stirring vigorously approximately 30 minutes followed by sonication for 10 min. The compound 1 solutions were brought to a final concentration by diluting 1:1 with 0.1 N HCI. The final drug solutions were sterile filtered immediately and transferred to sterile tubes. Solutions were stored refrigerated and protected form light during the course of the study and sterility was maintained by opening solutions under sterile laminar flow conditions.
# [3] = system: T24 H-ras transformed NIH3T3 cell tumors; experiment: as above; details: for duration of response (tumor suppressive effect): five-day dosing schedule
# [4] = 50, 100 and 200 mg/kg, five-day schedule, day 17
compound,measurement,setting,value
"Cn1cncc1[C@@](N)(c1ccc(Cl)cc1)c1ccc2c(c1)c(-c1cccc(Cl)c1)cc(=O)n2C [compound 1, (R)-6-[amino(4-chlorophenyl)(1-methyl-1H-imidazol-5yl)methyl]-4-(3-chlorophenyl)-1-methyl-2(1H)-quinolinone]","tumor growth, continuous schedule",[1]; 50 mg/kg twice daily (100 mg/kg total daily dose),significant reductions of tumor growth
same,"tumor growth, continuous schedule",[1]; 100 mg/kg twice daily (200 mg/kg daily dose),significant reductions of tumor growth
same,tumor growth after day 24 without further treatment,"[1]; 200 mg/kg for five days, no further treatment",returned to the growth rate observed for vehicle treated controls
same,growth of CAPAN-2 tumors,"[1]; 200 mg/kg p.o. once daily for five days, started three days after inoculation",significantly reduced the growth of CAPAN-2 tumors out to day 24
same,tumor growth after additional five-day treatment,"[1]; additional five-day treatment on days 21 to 25, significant on day 28",transient growth arrest
same,duration of response (tumor suppressive effect),"[2]; 50 mg/kg, five-day dosing schedule",waned by day 14
same,tumor size on day 17,"[2]; 200 mg/kg once daily p.o. for five days (days 3-8 after tumor inoculation), day 17",small tumors
same,reduction of final tumor weights,"[2]; 200 mg/kg, five-day schedule, day 17",90%
same,reduction of tumor growth measured as final tumor area,[2]; [4],"Significant, dose-related reductions"
same,reduction of tumor growth measured as final tumor weights,[2]; [4],"Significant, dose-related reductions"
same,tumor growth after additional 5-day treatment,[2]; additional 5-day treatment with 200 mg/kg starting on day 21,again arrested but not as dramatically as in the initial treatment
same,duration of response (tumor suppressive effect),[3]; 100 mg/kg,waned by day 14
same,duration of response (tumor suppressive effect),[3]; 200 mg dose,sustained effects out to day 17
same,day by which tumors left untreated returned to rapid control growth rates,"[3]; 200 mg/kg once daily p.o. for five days, no further treatment",≤ 24 days
same,duration of sustained inhibition of tumor growth,[3]; single 200 mg/kg dose three days after tumor inoculation,15 days
same,duration of sustained inhibition of tumor growth,[3]; single 400 mg/kg dose three days after tumor inoculation,15 days
